Data published in ChEMBL document CHEMBL4483862, “Open-source discovery of chemical leads for next-generation chemoprotective antimalarials” (2018).

Tested on: Plasmodium berghei
Experiment: Luciferase/luciferin-expressing antifolate-resistant parasites were used to infect a culture of HepG2 cells that were pre-incubated with compounds. Infected hepatocytes emit light due to the luciferase reaction. Assay results are presented as the percent inhibition of light emission compared to control. […]
Assay type: functional
Settings: sporozoite; for IC50: read-out: LUCIFERASE INFECTION ASSAY - IC50; for IC90: read-out: LUCIFERASE INFECTION ASSAY - IC90

| Compound | IC50 [µM] | IC90 [µM] |
| --- | --- | --- |
| Cc1cccc(C)c1OCCOC(=O)c1[nH]nc2ccccc12 | > 10 | > 10 |
| Cc1ccc(NC(=O)c2ccc(Cl)c(NC(=O)c3cccs3)c2)cc1 | > 8.9 | > 8.9 |
| Cc1ccc(CSc2nnc(-c3ccccc3N)c(O)n2)cc1 | > 10.2 | > 10.2 |
| Brc1ccc(CNc2ccc3ncccc3c2)cc1 | > 10.5 | > 10.5 |
| COc1cc2c(cc1NC(=O)c1cccc(F)c1)CCCC2 | 4.59 | > 11 |
| c1nc(NCC2(N3CCOCC3)CCCCC2)c2ccsc2n1 | > 10 | > 10 |
| Cc1ccc2c(CC(=O)Nc3sccc3C(N)=O)coc2c1 | > 10 | > 10 |
| CCOc1ccccc1NC(=O)CN(C)S(=O)(=O)c1ccc(OC)c(C)c1 | > 8.41 | > 8.41 |
| O=C1c2cccnc2C(=O)N1Cc1ccc2c(c1)OCO2 | > 11.7 | > 11.7 |
| O=C(Nc1ccc(F)cc1)c1ccc(CN2CCc3ccccc3C2)cc1 | > 9.16 | > 9.16 |
| CC1CCN(CC(O)COC2CC(C)CC(C)(C)C2)CC1 (stereo not given) | > 9.88 | > 9.88 |
| CC1CCC(C(C)C)C(OCC(O)CN2C(C)CCCC2C)C1 (stereo not given) | > 9.12 | > 9.12 |
| CCc1cccc2c(/C=C3\C(=O)Nc4ccccc43)c[nH]c12 | 6.04 | > 10 |
| O=S(=O)(c1ccc(C2=NNC(=NC3CC3)SC2)cc1)N1CCCCC1 | > 10 | > 10 |
| COc1cccc(C(=O)Nc2nc3ccc(C)cn3c2C(=O)NCC(C)C)c1 | 2.62 | 4.69 |
| CCC(C)NC(=O)c1c(NC(=O)c2ccc(F)cc2F)nc2ccc(C)cn12 (stereo not given) | 2.9 | 3.23 |
| CCCCNC(=O)c1c(NC(=O)c2c(F)ccc(F)c2F)nc2ccccn12 | > 8.45 | > 8.45 |
| O=C(Nc1ccc2c[nH]nc2c1)c1cccc(Oc2ccccc2)c1 | > 10 | > 10 |
| Cc1ccc(NC(=O)CSc2ccc(Nc3ccc(C)cc3)nn2)cc1 | > 9.05 | > 9.05 |
| CCOC(=O)C1=C(Nc2cccc(Cl)c2)S/C(=C\c2ccc(C)cc2)C1=O | > 8.25 | > 8.25 |
| Cc1ccc2nc(NC(=O)c3cccc(F)c3)c(C(=O)NC3CCCC3)n2c1 | 0.886 | 1.08 |
| c1ccc(-c2cc(NCc3cccs3)nc3ccccc23)cc1 | > 10 | > 10 |
| CCCCNC(=O)c1c(NC(=O)c2ccc(OC)cc2)nc2c(C)cccn12 | > 8.67 | > 8.67 |

| Compound | IC50 [µM] | IC90 [µM] |
| --- | --- | --- |
| CCC(CC)CN1C[C@H](OCc2ccccc2)C[C@H]1C(=O)NC(c1ccccc1)c1ccccc1 | > 7.01 | > 7.01 |
| CCSc1ccccc1C(=O)Nc1ccc(C(=O)OC)cc1 | > 10.5 | > 10.5 |
| Cc1ccc(C2=NNC(=Nc3cccc(S(=O)(=O)N(C)C)c3)SC2)cc1 | 3.5 | 4.33 |
| Cc1ccc2nc(NC(=O)c3ccc(Cl)cc3)c(C(=O)NCC(C)C)n2c1 | 2.76 | 2.91 |
| O=C(Nc1cccc(Cl)c1)OCc1ccccc1F | > 11.8 | > 11.8 |
| COc1cccc(CC(=O)Nc2nc3ccc(C)cn3c2C(=O)NC2CCCC2)c1 | > 8.12 | > 8.12 |
| CCCCNC(=O)c1c(NC(=O)c2ccc(F)cc2)nc2ccc(C)cn12 | 2.67 | 3.28 |
| CC1=NN(c2ccc(C)c(Cl)c2)C(=O)/C1=C\c1ccc2c(c1)OCO2 | > 9.3 | > 9.3 |
| Cc1ccc(CC2CC(=O)N(C3CCCCC3)C2=O)cc1 (stereo not given) | > 11.6 | > 11.6 |
| Cc1cccc(C(=O)Nc2sc3c(c2C(=O)N2CCCCC2)CCCCC3)c1 | 0.805 | 6.3 |
| Oc1cccc(Nc2nc(N3CCCCC3)c3ccccc3n2)c1 | > 10 | > 10 |
| O=C(Nc1ccc(Cl)c(Cl)c1)Nc1ccc2c(c1)OCCO2 | > 9.73 | > 9.73 |
| COCCN1C=C(C(=O)OC)C(c2cccc(O)c2)C(C(=O)OC)=C1 | > 9.5 | > 9.5 |
| CCCN(CCC(=O)Nc1cccc(Cl)c1)CC1CC1 | > 11.2 | > 11.2 |
| CC(C)c1ccc(OCC(=O)Nc2ccccc2C(F)(F)F)cc1 | > 9.78 | > 9.78 |
| Cc1ccc2nc(NC(=O)C3CCCC3)c(C(=O)NC3CCCC3)n2c1 | > 9.31 | > 9.31 |
| COCCNc1nc(-c2ccc(Cl)cc2)nc2ccccc12 | > 10.5 | > 10.5 |
| CCOC(=O)c1ccc2c(c1)C1C=CCC1C(c1cccnc1)N2 (stereo not given) | > 10.3 | > 10.3 |
| Cc1ccc2nc(NC(=O)c3ccc(C(F)(F)F)cc3)c(C(=O)NC3CCCC3)n2c1 | 0.593 | 1.95 |
| Cc1ccccc1OCCOC(=O)Nc1ccccc1 | > 12.2 | > 12.2 |
| Cc1ccc(C(C)(C)CC(C)NCc2ccc(Cl)cc2)o1 (stereo not given) | > 10.8 | > 10.8 |
| CCOc1ccc(C2NC(=O)NC(C)=C2C(=O)OCC2CCCO2)cc1OC (stereo not given) | > 8.45 | > 8.45 |
| O=C(NCCCn1ccc2ccccc21)Nc1ccc(Cl)c(Cl)c1 | > 10 | > 10 |

| Compound | IC50 [µM] | IC90 [µM] |
| --- | --- | --- |
| COCCNCCOc1ccc(OCc2ccccc2)cc1 | > 10.9 | > 10.9 |
| O=C(Nc1cc([N+](=O)[O-])ccc1Cl)Nc1ccccc1-c1nc2ccccc2[nH]1 | > 10 | > 10 |
| CCCCNC(=O)c1c(NC(=O)c2c(F)cccc2F)nc2ccc(C)cn12 | 5.12 | 6.69 |
| Cc1ccc2nc(NC(=O)c3cccc(Cl)c3Cl)c(C(=O)NC3CCCC3)n2c1 | > 7.65 | > 7.65 |
| CC(C)CN(CC(C)C)CC(O)COc1ccccc1 (stereo not given) | > 11.8 | > 11.8 |
| COc1ccc(-c2nc(NC(=O)c3ccc4nc[nH]c4c3)sc2C)cc1 | > 10 | > 10 |
| Cc1cccn2c(C(=O)NC3CCCCC3)c(NC(=O)c3cccc(F)c3)nc12 | > 8.37 | > 8.37 |
| CCCNC(=O)c1c(NC(=O)c2cccc(Cl)c2Cl)nc2ccc(C)cn12 | > 8.14 | > 8.14 |
| CCCNC(=O)c1c(NC(=O)c2cccc(F)c2)nc2ccccn12 | 4.52 | 7.76 |
| O=C(Nc1nc2ccccn2c1C(=O)NC1CCCCC1)c1c(F)ccc(F)c1F | > 7.93 | > 7.93 |
| Fc1ccc(CN2CCN(Cc3ccco3)CC2)cc1 | > 12 | > 12 |
| Cc1ccc(Cn2nnc(-c3ccccc3C)n2)cc1 | > 12.5 | > 12.5 |
| O=C(Nc1nc2ccccn2c1C(=O)NC1CCCC1)c1ccc(F)cc1F | 2.94 | 3.49 |
| O=C(Nc1nc2ccccn2c1C(=O)NC1CCCC1)c1ccc(F)cc1 | > 9.01 | > 9.01 |
| Clc1ccc(-c2csc3ncnc(NCc4ccco4)c23)cc1 | > 10 | > 10 |
| Cc1ccc2nc(NC(=O)c3ccccc3)c(C(=O)NC3CCCC3)n2c1 | 3.06 | 3.58 |
| Cc1ccc(C)c(OCC(O)CN2CCc3ccccc3C2)c1 (stereo not given) | > 9.49 | > 9.49 |
| Cc1cc(C)cc(NC(=O)CNCCCn2ccc3ccccc32)c1 | > 10 | > 10 |
| CCc1c(C)[nH]c2c(-c3ccc(Cl)cc3)cnn2c1=O | 5.93 | 11 |
| O=C(c1ccco1)N(Cc1nccs1)c1ccc(-c2ccccc2)cc1 | > 9.16 | > 9.16 |
| O=C(COCc1ccccc1)Nc1nc2ccccn2c1C(=O)NC1CCCCC1 | > 8.12 | > 8.12 |
| O=C(Nc1cccc(Cl)c1)Nc1nc2ccccc2[nH]1 | > 10 | > 10 |
| Cc1cc(C(=O)Nc2nc3c(C)cccn3c2C(=O)NC2CCCC2)c(C)o1 | > 8.67 | > 8.67 |

| Compound | IC50 [µM] | IC90 [µM] |
| --- | --- | --- |
| CCCNC(=O)c1c(NC(=O)c2cccc(C(F)(F)F)c2)nc2ccccn12 | 0.399 | 0.786 |
| CCOc1ccc(NC(=O)CCOc2cccc(C)c2)cc1 | > 11 | > 11 |
| CCOc1ccccc1C(=O)NCCc1cccc(Cl)c1 | > 10.9 | > 10.9 |
| CCCCNC(=O)c1c(NC(=O)c2ccccc2C)nc2ccc(C)cn12 | 6.48 | > 9.05 |
| CCCCNC(=O)c1c(NC(=O)c2cccc(F)c2)nc2ccc(C)cn12 | 1.29 | 2.84 |
| C=CCNC(=O)CN(c1ccc(Br)cc1)S(C)(=O)=O | > 9.5 | > 9.5 |
| Cc1[nH]c2c(-c3ccccc3)c(C(F)(F)F)nn2c(=O)c1Cc1ccccc1 | 7.44 | > 8.61 |
| Cc1cccn2c(C(=O)NC(C)C)c(NC(=O)c3cccc(C(F)(F)F)c3)nc12 | > 8.16 | > 8.16 |
| Cc1c(Cl)cccc1-c1ccc(C(=O)NCc2ccco2)o1 | > 10.5 | > 10.5 |
| CCc1ccccc1N(CC(=O)NCC(C)C)S(=O)(=O)c1ccc(C)cc1 | > 8.49 | > 8.49 |
| CC1=C(C(=O)OCc2ccccc2)C(c2ccc(C(F)(F)F)cc2)CC(=O)N1 (stereo not given) | > 8.48 | > 8.48 |
| CCOc1cc(/C=C/c2ccc3cccc(O)c3n2)cc(Br)c1O | 3.28 | 3.78 |
| COc1ccc2c(-c3ccccc3)cc(NCCc3ccc(S(N)(=O)=O)cc3)nc2c1 | 8.55 | > 10 |
| CCC(C)NC(=O)c1c(NC(=O)c2ccc(Cl)cc2)nc2ccc(C)cn12 (stereo not given) | 2.58 | 3.02 |
| COc1cccc(CC(=O)N2C[C@H](OC)C[C@H]2C(=O)NCC2CCCCC2)c1 | > 8.49 | > 8.49 |
| CC(C)CCN(C(=O)CN1c2ccccc2CC1C)c1c(N)n(Cc2ccccc2)c(=O)[nH]c1=O (stereo not given) | > 10 | > 10 |
| Cc1ccc2nc(NC(=O)COCc3ccccc3)c(C(=O)NC3CCCCC3)n2c1 | > 7.85 | > 7.85 |
| CCCCNC(=O)c1c(NC(=O)c2cccc(F)c2F)nc2ccccn12 | > 8.86 | > 8.86 |
| CCC(C)NC(=O)c1c(NC(=O)c2cc(F)c(F)cc2F)nc2ccc(C)cn12 (stereo not given) | 0.917 | 1.1 |
| COc1ccc(C2CC(=O)Nc3ccc4ccccc4c32)c(OC)c1OC (stereo not given) | > 9.08 | > 9.08 |
| CCCCNC(=O)c1c(NC(=O)c2cccc(OC)c2)nc2ccc(C)cn12 | 2.79 | 3.2 |
